Measured values reported in patent publication US11427567B2, “Imidazolyl pyrimidinylamine compounds as CDK2 inhibitors” (Incyte Corporation, priority 2019, dated 2022).

Biological target: CDK2/Cyclin E1 (Homo sapiens (Human), UniProt P24941)
Test: CDK2/Cyclin E1 HTRF enzyme activity assay (Example A)
Format: biochemical
Details: 1 mM ATP
Method: Assays were conducted in white 384-well polystyrene plates in a final reaction volume of 8 μL. […] HTRF signals were read after 1 hour at room temperature on a PHERAstar FS plate reader (BMG Labtech). Data was analyzed with IDBS XLFit and GraphPad Prism 5.0 software using a three or four parameter dose response curve to determine IC50 for each compound.

SMILES	IC50
Cc1c(-n2cnc(-c3nc(NC4CCN(S(=O)(=O)c5cn(C)cn5)CC4)ncc3C(F)(F)F)c2)ccnc1C#N [Example 7, 3-Methyl-4-(4-(2-((1-((1-methyl-1H-imidazol-4-yl)sulfonyl)piperidin-4-yl)amino)-5-(trifluoromethyl)pyrimidin-4-yl)-1H-imidazol-1-yl)picolinonitrile]	≤ 50 nM
CN1CCC(c2ccc(-n3cnc(-c4nc(NC5CCN(S(C)(=O)=O)CC5)ncc4C(F)(F)F)c3)c(Cl)c2)CC1 [Example 439, 4-(1-(2-Chloro-4-(1-methylpiperidin-4-yl)phenyl)-1H-imidazol-4-yl)-N-(1-(methylsulfonyl)piperidin-4-yl)-5-(trifluoromethyl)pyrimidin-2-amine]	≤ 50 nM
CCNCc1cc(F)c(-n2cnc(-c3nc(N[C@@H]4CCN(S(C)(=O)=O)C[C@H]4F)ncc3C(F)(F)F)c2)c(Cl)c1 [Example 406, 4-(1-(2-Chloro-4-((ethylamino)methyl)-6-fluorophenyl)-1H-imidazol-4-yl)-N-((3R,4R)-3-fluoro-1-(methylsulfonyl)piperidin-4-yl)-5-(trifluoromethyl)pyrimidin-2-amine]	≤ 50 nM
CS(=O)(=O)N1CCC(Nc2ncc(C(F)(F)F)c(-c3cn(-c4ccccc4F)c(Br)n3)n2)CC1 [Example 461, 4-(2-Bromo-1-(2-fluorophenyl)-1H-imidazol-4-yl)-N-(1-(methylsulfonyl)piperidin-4-yl)-5-(trifluoromethyl)pyrimidin-2-amine]	≤ 50 nM
CCN(C)Cc1ccc(-n2cc(-c3nc(NC4CCN(S(C)(=O)=O)CC4)ncc3C(F)(F)F)nc2C)c(F)c1 [Example 358, 4-(1-(4-((Ethyl(methyl)amino)methyl)-2-fluorophenyl)-2-methyl-1H-imidazol-4-yl)-N-(1-(methylsulfonyl)piperidin-4-yl)-5-(trifluoromethyl)pyrimidin-2-amine]	≤ 50 nM
Cc1nc(C#N)ccc1-n1cnc(-c2nc(N[C@H]3CCN(S(C)(=O)=O)C[C@H]3F)ncc2C(F)(F)F)c1 [Example 49, 5-(4-(2-(((3R,4S)-3-Fluoro-1-(methylsulfonyl)piperidin-4-yl)amino)-5-(trifluoromethyl)pyrimidin-4-yl)-1H-imidazol-1-yl)-6-methylpicolinonitrile]	≤ 50 nM
CNCc1ccc(-n2cnc(-c3nc(N[C@H]4CCN(S(=O)(=O)C5CC5)C[C@H]4C)ncc3C(F)(F)F)c2)c(Cl)c1 [Example 223, 4-(1-(2-Chloro-4-((methylamino)-methyl)phenyl)-1H-imidazol-4-yl)-N-((3R,4S)-1-(cyclo-propylsulfonyl)-3-methylpiperidin-4-yl)-5-(trifluoro-methyl)pyrimidin-2-amine]	≤ 50 nM
C[C@@H]1CN(S(=O)(=O)C2CC2)CC[C@@H]1Nc1ncc(C(F)(F)F)c(-c2cn(-c3ccc(CN(C)C)cc3Cl)cn2)n1 [Example 222, 4-(1-(2-Chloro-4-((dimethylamino)-methyl)phenyl)-1H-imidazol-4-yl)-N-((3R,4S)-1-(cyclo-propylsulfonyl)-3-methylpiperidin-4-yl)-5-(trifluoro-methyl)pyrimidin-2-amine]	≤ 50 nM
O=S(=O)(C1CC1)N1CCC(Nc2ncc(C(F)(F)F)c(-c3cn(CC(F)F)cn3)n2)CC1 [Example 29, N-(1-(Cyclopropylsulfonyl)piperidin-4-yl)-4-(1-(2,2-difluoroethyl)-1H-imidazol-4-yl)-5-(trifluoromethyl)pyrimidin-2-amine]	≤ 50 nM
Cn1cnc(-c2nc(NC3CCN(S(=O)(=O)c4cn(C)cn4)CC3)ncc2C(F)(F)F)c1 [Example 10, 4-(1-Methyl-1H-imidazol-4-yl)-N-(1-((1-methyl-1H-imidazol-4-yl)sulfonyl)piperidin-4-yl)-5-(trifluoromethyl)pyrimidin-2-amine]	≤ 50 nM
CCNC(=O)c1ccc(-n2cnc(-c3nc(NC4CCN(S(C)(=O)=O)CC4)ncc3C(F)(F)F)c2)c(C)n1 [Example 134, N-Ethyl-6-methyl-5-(4-(2-((1-(methyl-sulfonyl)piperidin-4-yl)amino)-5-(trifluoromethyl)-pyrimidin-4-yl)-1H-imidazol-1-yl)picolinamide]	≤ 50 nM
CC(C)(O)Cn1cnc(-c2nc(NC3CCN(S(C)(=O)=O)CC3)ncc2C#N)c1 [Example 27, 4-(1-(2-Hydroxy-2-methylpropyl)-1H-imidazol-4-yl)-2-((1-(methylsulfonyl)piperidin-4-yl)amino)pyrimidine-5-carbonitrile]	≤ 50 nM
CS(=O)(=O)N1CCC(Nc2ncc(C(F)(F)F)c(-c3cn(-c4ccc(C#N)cc4Cl)cn3)n2)CC1 [Example 1, 3-Chloro-4-(4-(2-((1-(methylsulfonyl)piperidin-4-yl)amino)-5-(trifluoromethyl)pyrimidin-4-yl)-1H-imidazol-1-yl)benzonitrile]	≤ 50 nM
CCN1CC(c2ccc(-n3cnc(-c4nc(NC5CCN(S(C)(=O)=O)CC5)ncc4C(F)(F)F)c3)c(C#N)c2)C1 [Example 429, 5-(1-Ethylazetidin-3-yl)-2-(4-(2-((1-(methylsulfonyl)piperidin-4-yl)amino)-5-(trifluoromethyl)pyrimidin-4-yl)-1H-imidazol-1-yl)benzonitrile]	≤ 50 nM
CC1(O)CCN(Cc2ccc(-n3cnc(-c4nc(NC5CCN(S(C)(=O)=O)CC5)ncc4C(F)(F)F)c3)c(C(F)(F)F)c2)CC1 [Example 262, 4-Methyl-1-(4-(4-(2-((1-(methylsulfonyl)piperidin-4-yl)amino)-5-(trifluoromethyl)pyrimidin-4-yl)-1H-imidazol-1-yl)-3-(trifluoromethyl)benzyl) piperidin-4-ol]	≤ 50 nM
CC(C)(O)Cn1cnc(-c2nc(NC3CCN(S(=O)(=O)c4ccccn4)CC3)ncc2C(F)(F)F)c1 [Example 338, 2-Methyl-1-(4-(2-((1-(pyridin-2-ylsulfonyl)piperidin-4-yl)amino)-5-(trifluoromethyl)pyrimidin-4-yl)-1H-imidazol-1-yl)propan-2-ol]	≤ 50 nM
CCN1CC(c2ccc(-n3cc(-c4nc(NC5CCN(S(C)(=O)=O)CC5)ncc4C(F)(F)F)nc3C)c(F)c2)C1 [Example 418, 4-(1-(4-(1-Ethylazetidin-3-yl)-2-fluorophenyl)-2-methyl-1H-imidazol-4-yl)-N-(1-(methylsulfonyl)piperidin-4-yl)-5-(trifluoromethyl)pyrimidin-2-amine]	≤ 50 nM
Cc1nc(-c2nc(N[C@H]3CCN(S(C)(=O)=O)C[C@H]3F)ncc2C(F)(F)F)cn1-c1ccc(CN2CCC(C)(O)CC2)cc1F [Example 446, 1-(3-Fluoro-4-(4-(2-(((3R,4S)-3-fluoro-1-(methylsulfonyl)piperidin-4-yl)amino)-5-(trifluoromethyl)pyrimidin-4-yl)-2-methyl-1H-imidazol-1-yl)benzyl)-4-methylpiperidin-4-ol]	≤ 50 nM

Second part, the molecule after the results:

IC50	SMILES
≤ 50 nM	CNC(=O)c1ccc(-n2cnc(-c3nc(NC4CCN(S(C)(=O)=O)CC4)ncc3C(F)(F)F)c2)c(Cl)c1Cl [Example 137, 2,3-Dichloro-N-methyl-4-(4-(2-((1-(methylsulfonyl)piperidin-4-yl)amino)-5-(trifluoromethyl)pyrimidin-4-yl)-1H-imidazol-1-yl)benzamide]
≤ 50 nM	CS(=O)(=O)N1CCC(Nc2ncc(C(F)(F)F)c(-c3cn(-c4ccc(CN5CCCCC5)cc4Cl)cn3)n2)CC1 [Example 208]
≤ 50 nM	CC(C)(O)Cn1cnc(-c2nc(N[C@H]3CCN(S(C)(=O)=O)C[C@H]3F)ncc2C(F)(F)F)c1 [Example 325, 1-(4-(2-(((3R,4S)-3-Fluoro-1-(methylsulfonyl)piperidin-4-yl)amino)-5-(trifluoromethyl)pyrimidin-4-yl)-1H-imidazol-1-yl)-2-methylpropan-2-ol]
≤ 50 nM	[2H]C([2H])([2H])NCc1cccc(-n2cnc(-c3nc(NC4CCN(S(C)(=O)=O)CC4)ncc3C(F)(F)F)c2)c1Cl [Example 462, 4-(1-(2-Chloro-3-(((methyl-d3)amino)methyl)phenyl)-1H-imidazol-4-yl)-N-(1-(methylsulfonyl)piperidin-4-yl)-5-(trifluoromethyl)pyrimidin-2-amine]
≤ 50 nM	Cc1nc(-c2nc(N[C@H]3CCN(S(C)(=O)=O)C[C@H]3F)ncc2C(F)(F)F)cn1-c1ccc(CNC2CC2)cc1F [Example 408]
≤ 50 nM	CS(=O)(=O)N1CC[C@@H](Nc2ncc(C(F)(F)F)c(-c3cn(-c4c(F)cc(CN5CCC5)cc4Cl)cn3)n2)[C@H](F)C1 [Example 404, 4-(1-(4-(Azetidin-1-ylmethyl)-2-chloro-6-fluorophenyl)-1H-imidazol-4-yl)-N-((3R,4R)-3-fluoro-1-(methylsulfonyl)piperidin-4-yl)-5-(trifluoromethyl)pyrimidin-2-amine]
≤ 50 nM	CNCc1cccc(-n2cnc(-c3nc(NC4CCN(S(C)(=O)=O)CC4)ncc3C(F)(F)F)c2)c1Cl [Example 80, 4-(1-(2-Chloro-3-((methylamino)methyl)phenyl)-1H-imidazol-4-yl)-N-(1-(methylsulfonyl)piperidin-4-yl)-5-(trifluoromethyl)pyrimidin-2-amine]
≤ 50 nM	C[C@@H]1CN(S(=O)(=O)c2cn(C)cn2)CC[C@@H]1Nc1ncc(C(F)(F)F)c(-c2cn(-c3cccc(C#N)c3Cl)cn2)n1 [Example 155, 2-Chloro-3-(4-(2-(((3R,4S)-3-methyl-1-((1-methyl-1H-imidazol-4-yl)sulfonyl)piperidin-4-yl)amino)-5-(trifluoromethyl)pyrimidin-4-yl)-1H-imidazol-1-yl)benzonitrile]
≤ 50 nM	Cc1nc(-c2nc(N[C@H]3CCN(S(C)(=O)=O)C[C@H]3F)ncc2C(F)(F)F)cn1-c1ccc(CNC(C)C)cc1F [Example 388, N-((3R,4S)-3-Fluoro-1-(methylsulfonyl)piperidin-4-yl)-4-(1-(2-fluoro-4-((isoporopylamino)methyl)phenyl)-2-methyl-1H-imidazol-4-yl)-5-(trifluoromethyl)pyrimidin-2-amine]
≤ 50 nM	CS(=O)(=O)N1CC[C@@H](Nc2ncc(C(F)(F)F)c(-c3cn(CC(F)F)cn3)n2)[C@H](F)C1 [Example 331, 4-(1-(2,2-Difluoroethyl)-1H-imidazol-4-yl)-N-((3R,4R)-3-fluoro-1-(methylsulfonyl)piperidin-4-yl)-5-(trifluoromethyl)pyrimidin-2-amine]
